Measurements taken from ChEMBL document CHEMBL3232869, “Anti-inflammatory components of Euphorbia humifusa Willd” (Bioorg Med Chem Lett, 2014).
Calls of active or inactive are those of the source. The rule behind the calls is not given here.

Tests used:
RAW264.7 [1] = assay: Antiinflammatory activity in mouse RAW264.7 cells assessed as inhibition of LPS-induced TNF-alpha secretion at 10 uM after 18 hrs by sandwich ELISA; assay type: functional
RAW264.7 [2] = assay: Antiinflammatory activity in mouse RAW264.7 cells assessed as inhibition of LPS-induced TNF-alpha secretion at 0.4 uM after 18 hrs by sandwich ELISA; assay type: functional, cell-based
RAW264.7 [3] = assay: Cytotoxicity against mouse RAW264.7 cells assessed as cell viability at 50 uM after 18 hrs by MTT assay in presence of LPS; assay type: cell-based; settings: raw264.7, 18 h
RAW264.7 [4] = assay: Antiinflammatory activity in mouse RAW264.7 cells assessed as inhibition of LPS-induced nitric oxide production at 10 uM after 18 hrs by griess reaction analysis; assay type: functional
RAW264.7 [5] = assay: Antiinflammatory activity in mouse RAW264.7 cells assessed as inhibition of LPS-induced TNF-alpha secretion after 18 hrs by sandwich ELISA; assay type: functional, cell-based; settings: RAW264.7, 18 h
[6] = molecular target: T1, Bifunctional epoxide hydrolase 2 (Homo sapiens) (UniProt P34913); assay: Inhibition of sEH (unknown origin) assessed as substrate PHOME hydrolysis at 25 uM after 1 hr by fluorescence method
T1 sequence (whole entry): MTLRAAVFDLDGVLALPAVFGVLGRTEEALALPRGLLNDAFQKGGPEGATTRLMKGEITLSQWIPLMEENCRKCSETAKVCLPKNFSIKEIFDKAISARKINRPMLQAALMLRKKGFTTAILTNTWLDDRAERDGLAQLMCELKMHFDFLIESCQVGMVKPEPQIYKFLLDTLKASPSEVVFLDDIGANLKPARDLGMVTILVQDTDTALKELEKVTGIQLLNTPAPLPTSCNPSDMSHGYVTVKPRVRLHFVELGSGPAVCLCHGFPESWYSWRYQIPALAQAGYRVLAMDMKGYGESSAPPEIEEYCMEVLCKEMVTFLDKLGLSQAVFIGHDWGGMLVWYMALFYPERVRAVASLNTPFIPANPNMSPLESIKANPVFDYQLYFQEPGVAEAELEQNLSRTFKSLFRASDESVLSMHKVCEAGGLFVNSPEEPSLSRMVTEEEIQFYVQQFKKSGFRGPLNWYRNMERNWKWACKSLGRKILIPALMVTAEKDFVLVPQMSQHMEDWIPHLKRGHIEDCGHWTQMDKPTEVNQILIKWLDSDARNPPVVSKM

[7] = molecular target: T2, Bifunctional epoxide hydrolase 2 (Homo sapiens, UniProt P34913); assay: Inhibition of sEH (unknown origin) assessed as substrate PHOME hydrolysis after 1 hr by fluorescence method
T2 sequence (P34913 whole entry): T1 sequence (whole entry)

RAW264.7 [8] = assay: Antiinflammatory activity in mouse RAW264.7 cells assessed as inhibition of LPS-induced nitric oxide production after 18 hrs by griess reaction analysis; assay type: functional, cell-based; settings: RAW264.7, 18 h
RAW264.7 [9] = assay: Antiinflammatory activity in mouse RAW264.7 cells assessed as inhibition of LPS-induced nitric oxide production at 0.4 uM after 18 hrs by griess reaction analysis; assay type: functional, cell-based

SMILES | inhibition (RAW264.7 [1]) | inhibition (RAW264.7 [2]) | Activity (RAW264.7 [3]) | inhibition (RAW264.7 [4]) | IC50 (RAW264.7 [5]) [µM] | inhibition [6] [%] | IC50 [7] [µM] | IC50 (RAW264.7 [8]) [µM] | inhibition (RAW264.7 [9])
O=c1c(O[C@@H]2O[C@H](CO)[C@@H](O)[C@H](O)[C@H]2O)c(-c2ccc(O)cc2)oc2cc(O)cc(O)c12 [ASTRAGALIN] | Active | inactive | Non-toxic | inactive | 40.6 | > 40 | > 50 | 37.1 | inactive
C[C@@H]1O[C@@H](OC[C@H]2O[C@@H](Oc3c(-c4ccc(O)c(O)c4)oc4cc(O)cc(O)c4c3=O)[C@H](O)[C@@H](O)[C@@H]2O)[C@H](O)[C@H](O)[C@H]1O [RUTIN] | Active | inactive | Non-toxic | Active | 44.5 | > 40 | 24.3 | 27.5 | inactive
O=C1C[C@H](C(=O)O)c2c1oc(=O)c1cc(O)c(O)c(O)c21 | Active | inactive | Non-toxic | inactive | 21.3 | > 40 | 47.4 | 41.2 | inactive
COC(=O)[C@H]1CC(=O)c2oc(=O)c3cc(O)c(O)c(O)c3c21 | Active | inactive | Non-toxic | Active | 21.2 | > 40 | > 50 | 23.8 | inactive
O=c1oc2c(O)c(O)cc3c(=O)oc4c(O)c(O)cc1c4c23 [ELLAGIC ACID] | Active | inactive | Non-toxic | inactive | > 50 | > 40 | 20.7 | 35.7 | inactive
O=c1c(O[C@@H]2O[C@H](CO)[C@H](O)[C@H](O)[C@H]2O)c(-c2ccc(O)c(O)c2)oc2cc(O)cc(O)c12 [HYPEROSIDE] | Active | inactive | Non-toxic | inactive | > 50 | > 40 | 21.8 | 48.8 | inactive
O=C(OC[C@H]1O[C@@H](OC(=O)c2cc(O)c(O)c(O)c2)[C@H](O)[C@@H](OC(=O)c2cc(O)c(O)c(O)c2)[C@@H]1OC(=O)c1cc(O)c(O)c(O)c1)c1cc(O)c(O)c(O)c1 | Active | inactive | Non-toxic | inactive | 22.6 | > 40 | 36.1 | > 50 | inactive
